Experimental findings from patent US20230134922A1, “TOPICAL DELIVERY OF BUFFERING AGENTS FOR PREVENTION AND TREATMENT OF VIRAL INFECTIONS” (Dyve Biosciences, Inc., priority 2020, published 2023) are described below.

One test has as its system MCF-7 tumors. Briefly: MCF-7 tumor growth in SCID mice, doxorubicin with oral or topical bicarbonate. The format is in vivo. As to the method: The start of the bicarbonate treatment was designated as day 1.
Tumor volumes and animal weights were monitored every 2 days. […] Other characteristics of tumors that increase its potential for carcinogenesis other than growth rates are measured by other parameters as well, including inhibition metastasis.

Another test concerns MCF-7 cells. Briefly: Doxorubicin uptake and cytotoxicity at medium pH 6.8 or 7.4. The following applies: raising the pHe from 6.8 to 7.4. The format is cell-based.

Method for MCF-7 cells: Twenty-four hours later, regular growth medium was replaced, and cells allowed to grow a subsequent 72 h, after which time they were fixed and stained with crystal violet for determination of cell number.

Take doxorubicin: in the test on MCF-7 tumors (Group B, 1.6 mg/kg i.p. days 3, 7, 11, doxorubicin alone), the “decrease of tumor growth rate” value is given as approximately 30%. Besides, the “reduction in tumor growth rate” value is 55% in the test on MCF-7 tumors (Group D, doxorubicin i.p. with 200 mM sodium bicarbonate drinking water); “significantly lowered tumor growth rate” with MCF-7 tumors (Group F, doxorubicin i.p. with topical bicarbonate formulation 150 μL/day); 55% with MCF-7 tumors (Group F, doxorubicin i.p. with topical bicarbonate formulation 150 μL/day, listed as Doxorubicin). For the same substance, the enhancement of cytotoxicity in the test on MCF-7 cells is listed as 2.25 fold. For the same substance, the “increase in intracellular doxorubicin concentrations” value in the test with MCF-7 cells was 2.56 fold.
